This is an account of results in patent publication US20020009491A1, “Compositions and methods for enhancing drug delivery across biological membranes and tissues” (priority 2000, published 2002).

Data set [1] is described as follows: Water solubility of taxol phosphate analog / arginine heptamer salt versus taxol.
Procedure: This water soluble analog of taxol was assayed for biological activity using a standard cytotoxicity assay.
For data set [2] the following is noted: cited from earlier work.
The conditions of data set [3]: fluorescein alone; cited from earlier work.

For `CC(=O)O[C@H]1C(=O)[C@@]2(C)[C@H]([C@H](OC(=O)c3ccccc3)[C@]3(O)C[C@H](OC(=O)[C@H](O)[C@@H](NC(=O)c4ccccc4)c4ccccc4)C(C)=C1C3(C)C)[C@]1(OC(C)=O)CO[C@@H]1C[C@@H]2O` [taxol, paclitaxel], in data set [1], the solubility in water result was “very limited solubility”. Also, the water solubility result in data set [2] is “≈ 0.25 μg/mL”.
Take `CC(=O)O[C@@]12CO[C@@H]1C[C@H](O)[C@@]1(C)C(=O)[C@H](O)C3=C(C)[C@@H](OC(=O)[C@H](O)[C@@H](NC(=O)OC(C)(C)C)c4ccccc4)C[C@@](O)([C@@H](OC(=O)c4ccccc4)[C@H]21)C3(C)C` [taxotere]: the water solubility in data set [2] is 6 to 7 µg/mL.
Consider `O=C1OC2(c3ccc(O)cc3Oc3cc(O)ccc32)c2ccccc21` [fluorescein], for which, in data set [3], the “solubility in water (general statement)” value is listed as “poorly soluble”.
